Source: the supplement of paper PMC10307832

Key:
Experiment in all cases: relative viability (nuclei count vs DMSO), 5 days (fraction); higher = more cells survive
[1] = compound: CC[C@H](C)N1C=C(C2=C(C=C(C=C21)C3=CN=C(C=C3)N4CCNCC4)C(=O)NCC5=C(C=C(NC5=O)C)C)C [GSK126] + NC(=O)Nc1cc(-c2cccc(F)c2)sc1C(=O)N[C@H]1CCCNC1 [AZD7762] (partner 0.2 µM)
In short: (§1)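 Values are medians from duplicate plates. Each reflects relative viability, defined as the nuclei count of treated wells over that of vehicle wells. Lung cancer cell lines in 1536-well plates were pin-tool dosed one day after seeding with one drug alone or with a fixed anchor-drug dose plus five library-drug doses (not always all listed) in √10 steps, then fixed, stained and imaged at 4× after 5 days.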

[2] = compound: NS(=O)(=O)OC[C@@H]1C[C@@H](n2ccc3c(N[C@H]4CCc5ccccc54)ncnc32)C[C@@H]1O [MLN4924] + Nc1ncn([C@H]2C[C@H](O)[C@@H](CO)O2)c(=O)n1 [Decitabine] (partner 2 µM)
In short: as §1

[3] = compound: CC[C@H](C)N1C=C(C2=C(C=C(C=C21)C3=CN=C(C=C3)N4CCNCC4)C(=O)NCC5=C(C=C(NC5=O)C)C)C [GSK126] + Cc1nc(Nc2ncc(C(=O)Nc3c(C)cccc3Cl)s2)cc(N2CCN(CCO)CC2)n1 [Dasatinib] (partner 0.075 µM)
In short: as §1

[4] = compound: CC[C@H](C)N1C=C(C2=C(C=C(C=C21)C3=CN=C(C=C3)N4CCNCC4)C(=O)NCC5=C(C=C(NC5=O)C)C)C [GSK126] + N=C(N)NC(=N)NCCc1ccccc1 [Phenformin] (partner 250 µM)
In short: as §1

| Cell Line | relative viability ([1]; first compound 0.08 µM) | relative viability ([1]; first compound 0.253 µM) | relative viability ([1]; first compound 0.8 µM) | relative viability ([1]; first compound 2.53 µM) | relative viability ([1]; first compound 8 µM) | relative viability ([2]; first compound 0.04 µM) | relative viability ([2]; first compound 0.1265 µM) | relative viability ([2]; first compound 0.4 µM) | relative viability ([2]; first compound 1.265 µM) | relative viability ([2]; first compound 4 µM) | relative viability ([3]; first compound 0.08 µM) | relative viability ([3]; first compound 0.253 µM) | relative viability ([3]; first compound 0.8 µM) | relative viability ([3]; first compound 2.53 µM) | relative viability ([3]; first compound 8 µM) | relative viability ([4]; first compound 0.08 µM) | relative viability ([4]; first compound 0.253 µM) | relative viability ([4]; first compound 0.8 µM) | relative viability ([4]; first compound 2.53 µM) | relative viability ([4]; first compound 8 µM) |
| --- | --- | --- | --- | --- | --- | --- | --- | --- | --- | --- | --- | --- | --- | --- | --- | --- | --- | --- | --- | --- |
| LU99A | 0.37 | 0.254 | 0.338 | 0.346 | 0.392 | 0.595 | 0.298 | 0.341 | 0.176 | 0.14 | 0.648 | 0.467 | 0.718 | 0.526 | 0.568 | 1.09 | 0.881 | 0.94 | 0.93 | 0.855 |
| LXF-289 | 1.16 | 1.11 | 0.956 | 1.1 | 1.09 | 0.346 | 0.323 | 0.28 | 0.183 | 0.133 | 0.31 | 0.223 | 0.19 | 0.257 | 0.358 | 0.549 | 0.509 | 0.477 | 0.487 | 0.483 |
| NCI-H23 | 0.248 | 0.214 | 0.208 | 0.29 | 0.205 | 0.344 | 0.329 | 0.276 | 0.249 | 0.21 | 0.884 | 0.789 | 0.782 | 0.858 | 0.749 | 0.843 | 0.792 | 0.738 | 0.761 | 0.77 |
| NCI-H322M | 0.538 | 0.531 | 0.536 | 0.647 | 0.53 | 0.707 | 0.65 | 0.62 | 0.469 | 0.491 | 0.247 | 0.252 | 0.266 | 0.278 | 0.27 | 0.826 | 0.787 | 0.849 | 0.875 | 0.817 |
| NCI-H358 | 0.552 | 0.471 | 0.482 | 0.768 | 0.476 | 0.2 | 0.206 | 0.183 | 0.111 | 0.148 | 0.202 | 0.167 | 0.173 | 0.15 | 0.175 | 0.465 | 0.306 | 0.379 | 0.402 | 0.299 |
| NCI-H441 | 1.29 | 0.965 | 1.03 | 1.1 | 1.08 | 0.253 | 0.241 | 0.22 | 0.158 | 0.175 | 0.618 | 0.688 | 0.458 | 0.796 | 0.407 | 0.991 | 0.727 | 0.708 | 0.946 | 0.826 |
| NCI-H460 | 0.616 | 0.5 | 0.594 | 0.538 | 0.546 | 0.524 | 0.462 | 0.325 | 0.0402 | 0.0249 | 0.562 | 0.483 | 0.455 | 0.421 | 0.569 | 0.587 | 0.531 | 0.523 | 0.483 | 0.468 |
| NCI-H522 | 0.849 | 0.888 | 0.904 | 0.93 | 0.964 | 0.626 | 0.598 | 0.571 | 0.401 | 0.406 | 0.871 | 0.699 | 0.794 | 1.02 | 0.775 | 0.62 | 0.671 | 0.662 | 0.743 | 0.601 |
| NCI-H596 | 1.12 | 0.904 | 1.2 | 1.12 | 0.988 | 1.09 | 1.1 | 0.933 | 0.97 | 0.727 | 0.692 | 0.537 | 0.633 | 0.887 | 0.594 | 0.913 | 0.761 | 0.751 | 0.948 | 0.829 |
| NCI-H647 | 0.465 | 0.495 | 0.497 | 0.507 | 0.371 | 0.363 | 0.221 | 0.142 | 0.0732 | 0.0787 | 0.193 | 0.206 | 0.171 | 0.111 | 0.179 | 0.595 | 0.45 | 0.448 | 0.344 | 0.508 |
| NCI-H650 | 0.946 | 1.11 | 0.964 | 1.01 | 1.16 | 0.272 | 0.253 | 0.201 | 0.167 | 0.165 | 0.468 | 0.493 | 0.432 | 0.39 | 0.455 | 0.431 | 0.464 | 0.445 | 0.437 | 0.472 |
| NCI-H727 | 0.683 | 0.619 | 0.539 | 0.64 | 0.458 | 0.783 | 0.823 | 0.546 | 0.493 | 0.502 | 0.353 | 0.36 | 0.39 | 0.416 | 0.348 | 0.469 | 0.622 | 0.587 | 0.624 | 0.533 |
| NCI-H838 | 1.1 | 0.932 | 0.873 | 0.916 | 0.857 | 0.351 | 0.257 | 0.224 | 0.176 | 0.186 | 0.344 | 0.308 | 0.313 | 0.266 | 0.209 | 0.652 | 0.468 | 0.522 | 0.487 | 0.555 |
| NCI-H1355 | 0.814 | 0.658 | 0.688 | 0.746 | 0.479 | 0.367 | 0.307 | 0.321 | 0.215 | 0.184 | 0.842 | 0.733 | 0.705 | 0.842 | 0.727 | 0.524 | 0.448 | 0.434 | 0.454 | 0.391 |
| NCI-H1395 | 0.392 | 0.381 | 0.399 | 0.399 | 0.342 | 0.704 | 0.596 | 0.461 | 0.359 | 0.346 | 0.464 | 0.439 | 0.406 | 0.399 | 0.427 | 0.487 | 0.446 | 0.43 | 0.506 | 0.474 |
| NCI-H1437 | 1.19 | 1.06 | 1.05 | 1.1 | 0.966 | 0.529 | 0.435 | 0.438 | 0.254 | 0.249 | 0.392 | 0.368 | 0.416 | 0.441 | 0.349 | 0.298 | 0.362 | 0.269 | 0.319 | 0.311 |
| NCI-H1651 | 0.534 | 0.416 | 0.467 | 0.537 | 0.364 | 0.578 | 0.586 | 0.46 | 0.216 | 0.146 | 0.534 | 0.427 | 0.363 | 0.443 | 0.45 | 0.369 | 0.268 | 0.354 | 0.313 | 0.364 |
| NCI-H1666 | 0.861 | 0.8 | 0.82 | 0.936 | 0.813 | 0.699 | 0.622 | 0.417 | 0.393 | 0.389 | 0.675 | 0.586 | 0.579 | 0.616 | 0.656 | 0.586 | 0.595 | 0.598 | 0.522 | 0.569 |
| NCI-H1734 | 0.597 | 0.497 | 0.526 | 0.576 | 0.531 | 0.514 | 0.472 | 0.197 | 0.141 | 0.135 | 0.573 | 0.505 | 0.463 | 0.467 | 0.449 | 0.474 | 0.361 | 0.393 | 0.382 | 0.418 |
| NCI-H1755 | 0.468 | 0.446 | 0.395 | 0.461 | 0.412 | 0.644 | 0.545 | 0.526 | 0.378 | 0.245 | 0.502 | 0.49 | 0.405 | 0.448 | 0.428 | 0.656 | 0.637 | 0.614 | 0.562 | 0.555 |
| NCI-H1792 | 0.68 | 0.712 | 0.537 | 0.58 | 0.567 | 0.72 | 0.556 | 0.571 | 0.377 | 0.219 | 0.829 | 0.607 | 0.743 | 0.608 | 0.72 | 0.344 | – | 0.262 | 0.255 | 0.228 |
| NCI-H1793 | 0.646 | 0.394 | 0.299 | 0.592 | 0.292 | 0.49 | 0.463 | 0.482 | 0.318 | 0.195 | 0.441 | 0.373 | 0.356 | 0.431 | 0.405 | 0.407 | 0.458 | 0.384 | 0.274 | 0.235 |
| NCI-H1915 | 0.762 | 0.739 | 0.663 | 0.755 | 0.676 | 0.271 | 0.262 | 0.235 | 0.202 | 0.142 | 0.3 | 0.3 | 0.34 | 0.347 | 0.328 | 0.412 | 0.374 | 0.404 | 0.359 | 0.371 |
| NCI-H1944 | 0.476 | 0.46 | 0.441 | 0.547 | 0.461 | 0.454 | 0.324 | 0.334 | 0.17 | 0.146 | 0.236 | 0.213 | 0.229 | 0.24 | 0.297 | 0.194 | 0.196 | 0.183 | 0.168 | 0.178 |
| NCI-H1975 | 0.775 | 0.703 | 0.682 | 0.784 | 0.64 | 0.413 | 0.429 | 0.309 | 0.237 | 0.201 | 0.389 | 0.366 | 0.375 | 0.355 | 0.291 | 0.465 | 0.412 | 0.392 | 0.422 | 0.405 |
| NCI-H1993 | 0.836 | 0.754 | 0.702 | 0.9 | 0.795 | 0.666 | 0.523 | 0.451 | 0.424 | 0.422 | 0.701 | 0.598 | 0.375 | 0.703 | 0.646 | 0.501 | 0.546 | 0.501 | 0.522 | 0.554 |
